The assay relates to Crl: CD (SD) male rats. The assay can be described thus: Evaluation of antidepressant effect (forced swimming, duration of immobility). The assay is classed as in vivo. An excerpt:
Meanwhile, there are no reports about animal models which provide a good clinical prediction to evaluate the improving efficacy for bipolar disorder. However, bipolar disorder comprises “manic state” and “depressive state”, and some animals are reported to be useful as a model to evaluate the improvement of each pathological condition individually. In general, an index of manic state is excessive hyperactivity induced by administering methamphetamine and chlordiazepoxide in combination, and that of depressive state is immobility induced by forced swimming.
Test 6: Evaluation of Antidepressant Effect
Test 6 is a typical test to evaluate the antidepressant activity of medicaments (Porsolt et al., Nature, 266: 730-732, 1977, Porsolt et al., Eur. J. Pharmacol., 47: 379-391, 1978). Crl: CD (SD) male rats (12 rats in each group, body weight 200-250 g) were forced to swim for 15 minutes in a water pool with 200 mm diameter. In the pool, water was filled up to a depth of 205 mm from the bottom of the pool, and thus the rats could not touch the bottom of the pool with their hind limbs. Fifteen minutes after the completion of the forced swimming, test compounds were orally administered to the rats. On the next day, the test compounds were administered to the rats at the same dose as the previous day, and the rats were put in the pool for 5 minutes at the same clock time as the previous day. […] The antidepressant effect was evaluated by calculating how long the duration of immobility was shortened against the control. To the control, 0.5% methylcellulose solution was administered.

Consider `NC(=O)Cc1ccccc1-c1ccccc1F` [Example 1, 2-(2′-Fluorobiphenyl-2-yl)acetamide], for which the “The rate of the shortened duration of immobility (% control)” value is 23.4 % control (10 mg/kg oral) and 24.9 % control (30 mg/kg oral).
